Series [1] concerns Polyarthritis (adjuvant-induced, heat-killed Mycobacterium butyricum) in male CD rats. In words: Developing Adjuvant-Induced Polyarthritis in Rats. As to conditions: for % Inhibition: oral, once daily 14 days, non-injected hind paw volume. The series is classed as in vivo, rat. The method, then: This test is used to determine the ability of compounds to affect the immunological processes involved in the induction and development of arthritis.
(§1) Polyarthritis is induced in male CD rats (150-170 g) by injection of heat-killed Mycobacterium butyricum. Each animal is given 0.1 ml of a 0.5% (5 mg/ml) adjuvant suspension in light mineral oil injected subcutaneously into the plantar surface of the right hind foot. At least 6 rats are used in each test group. Animals are dosed orally with test compound immediately after adjuvant injection, and once daily for a total of 14 days. Foot volumes are measured 24 hours after the final dose by mercury displacement to the lateral malleolus. Mean displacement volumes and their standard errors are calculated for the non-injected hind paws. Untreated normal and arthritic control groups are used as comparison for test compound effect. Results are expressed as percent of control effect.
The experiments reported here are performed using the same procedures as described in Example 3, except that 4-[2-(3',5'-di-t-butyl-4'-hydroxyphenol)ethenyl]pyridine (prior art) is under assay rather than the compound of the invention.

For series [2], the system named is established adjuvant-induced polyarthritis in rats. In words: Established Adjuvant-Induced Polyarthritis in Rats. The format is in vivo, rat. The method, then:
as §1
This assay is used to determine the ability of compounds to affect an established chronic inflammatory condition.
Rats in which polyarthritis has become established are selected 14 days after receiving the adjuvant suspension. They are treated daily with oral doses of test compound for 14 days (days 14-27). […] 24 hours after the final dose.

Series [3] relates to carrageenan induced paw edema in male CD rats. Briefly: Carrageenan Induced Paw Edema in Rats. The format is in vivo, rat. As for the experimental part:
This test is used to determine the ability of a compound to affect non-immune acute inflammation. Edema is produced in the right hind paw of male CD rats (150±10 g) by the subplantar injection of carrageenan (0.1 ml of a 1 percent suspension in saline). Ten rats are used in each test group. Test compound or its vehicle is administered orally 1 hour prior to carrageenan injection. Paw volume is determined by calculating the amount of mercury displaced after immersing the paw to the level of the lateral malleolus. Foot volumes are measured just prior to test compound administration and again 3 hours after carrageenan injection and the difference designated as edema volume.

Series [4] has as its target T1, 5-Lipoxygenase (Oryctolagus cuniculus, UniProt G1SNX0).
T1 construct: glycogen elicited rabbit PMNs; endogenous in cells; host or cells: glycogen-elicited rabbit polymorphonuclear leucocytes (PMNs)
T1 sequence (G1SNX0 1-674): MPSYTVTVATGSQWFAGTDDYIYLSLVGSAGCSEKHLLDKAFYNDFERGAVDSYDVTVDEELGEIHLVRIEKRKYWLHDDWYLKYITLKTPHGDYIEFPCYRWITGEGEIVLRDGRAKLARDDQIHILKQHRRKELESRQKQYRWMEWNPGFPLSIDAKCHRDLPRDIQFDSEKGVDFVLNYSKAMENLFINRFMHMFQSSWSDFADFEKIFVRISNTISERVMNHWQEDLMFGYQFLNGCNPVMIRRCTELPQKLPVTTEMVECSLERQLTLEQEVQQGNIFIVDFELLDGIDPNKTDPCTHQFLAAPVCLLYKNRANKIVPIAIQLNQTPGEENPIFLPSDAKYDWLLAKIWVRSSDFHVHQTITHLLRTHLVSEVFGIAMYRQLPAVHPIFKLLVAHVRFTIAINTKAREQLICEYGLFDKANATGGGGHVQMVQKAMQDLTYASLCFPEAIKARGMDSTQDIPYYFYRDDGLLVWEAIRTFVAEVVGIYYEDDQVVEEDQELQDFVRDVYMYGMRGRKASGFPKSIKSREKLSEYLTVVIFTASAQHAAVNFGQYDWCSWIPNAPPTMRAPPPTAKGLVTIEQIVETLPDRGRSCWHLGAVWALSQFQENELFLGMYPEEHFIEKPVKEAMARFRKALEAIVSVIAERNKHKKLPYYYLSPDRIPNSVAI
In words: Hydroxyacid Profile Assay of 5-Lipoxygenase Derived Arachidonic Acid Metabolites (5-HETE biosynthesis by glycogen-elicited PMNs). The series is classed as cell-based, rabbit. The method, then:
Buffer A (8.70 g NaCl; 0.27 g KCl; 0.42 g Na2 HPO4; 0.76 g KH2 PO4; and 1.00 g dextrose per liter H2 O; pH 7.0) (0.325 ml) is introduced into each of a battery of screwtop culture tubes. Then, a compound (0.100 ml) to be assayed is dispensed into individual tubes. Dose-response curves are determined by triplicate measurements at each concentration. Control tubes receive Buffer A (0.100 ml) in lieu of compound. Next, glycogen elicited rabbit PMNs (2×10^7 cells/tube; 4×10^7 cells/ml (0.500 ml) are added to each tube. The tubes are vortexed and preincubated in a shaking 37° C. water bath for 15 minutes.
Thereafter, the tubes are removed from the water bath and Calcium Ionophore Solution (400 μg/ml A-23187; Sigma Chemical Co., St. Louis, MO) (0.025 ml), ^14 C-arachidonic acid (0.25 μCi in 0.025 ethanol; New England Nuclear Products, Boston, MA) (0.025 ml) and Ca^+2 solution (CaCl2.2H2 O); 105.8 mg/10 ml H2 O) (0.025 ml) are added in that order. The tubes are vortexed and returned to the water bath for 30 minutes. The reaction is then terminated by the addition of HCl (0.8N, 0.025 ml).
Extraction and concentration of ^14 C-labeled 5-HETE is performed as follows. First, a solution (5.01 ml) containing 2 parts ethyl acetate, 3 parts CH2 Cl2 and unlabeled arachidonic acid (0.01 ml) is added to each tube. The tubes are capped and briefly vortexed. The contents of each tube are poured into a polypropylene column fitted with a porous polyethylene disc and Whatman phase separation filter paper. The organic phase is collected by gravity filtration into a conical centrifuge tube, while the aqueous phase is retained in the column by the phase separation paper. Each culture tube is rinsed once with the EtOAc:CH2 Cl2 solution (no arachidonic acid) (0.1 ml) and the wash added to the column. The organic phase is concentrated (to 0.5 ml) using a Savant Speed Vac concentrator (Savant Instruments, Inc., Hicksville, NY).
After concentration of the organic phase, the tubes are vortexed and stored covered on ice. An aliquot (0.01 ml) is then removed for liquid scintillation counting in a Beckman LS7500 Liquid Scintillation Counter (Beckman Instruments Corp., Fullerton, CA). […] This volume is applied to a silica gel covered glass plate in a 10 mm streak. The remaining fluid in the tube is measured via syringe and noted.
The TLC plate is placed in a chromatography chamber containing the following solvent system: CHCl3 :MeOH:HOAc:H2 O(v/v; 90:9:1:0.65). The plate is then air dried and counter on a Berthold Linear TLC Analyzer (Berthold Instruments, Inc., Pittsburgh, PA) for 30 minutes per lane. The integrated area of the 5-HETE band for each compound is converted to percent of control and analyzed.

Series [5] concerns Human neutrophils (respiratory burst, H2O2 production). In words: Effect of Test Compound on H2O2 Production by Neutrophils (PMNs). The series is classed as cell-based. As to conditions: for IC50: Homo sapiens, Neutrophil. The source says:
During this process molecular oxygen is converted to superoxide anion, which in turn yields hydrogen peroxide, hydroxyl radical and products of myeloperoxidase action. These activated oxygen species contribute to the cells microbiocidal activity. However they have also been reported to contribute to the inflammatory process and tissue destruction in rheumatic diseases [J. Fantone and P. Ward, Amer. […] This assay measures the ability of a test compound to inhibit the respiratory burst process by its effect on hydrogen peroxide production.
Either 10 μL stock solution of test compound or 10 μL medium is added to the appropriate tubes, followed by 1 ml cells in each tube. The tubes are incubated at 37° C. for 15 minutes. To the PMA stimulated group 10 μL/tube 10^-5 M PMA is added. To the opsonized zymosan stimulated group 20 μL/tube 10 mg/ml opsonized zymosan is added. The tubes are mixed gently to disperse cells and stimulus (if any) and 100 μL is pipetted into each of four microtiter plates. The plates are covered and incubated 1 hour at 37° C. in CO2.
After the incubation period 10 μL 1N NaOH is added to each test well to develop the color. A blanking well is made up of 110 μl distilled water.
Mean OD values are calculated for each set of quadruplicate wells. Any artifactual change in absorbance due to a direct drug effect on the detection system is subtracted out from the ΔOD of the stimulated cells+drug tubes. The % inhibition of H2 O2 release by PMA or opsonized zymosan is calculated relative to the "O drug" control for each stimulus as follows: […]

The subject of series [6] is reverse passive arthus reaction (paw swelling) in rats. In words: Reverse Passive Arthus Reaction. The format is in vivo, rat. As for the experimental part:
The reverse passive arthus reaction is initiated by the interaction of antigen and antibody resulting in the formation of a precipitating immune complex, followed by fixation of complement, accumulation of leukocytes, edema and hemorrhage. The immunopathology of rheumatoid arthritis involves many of the parameters found in this reaction.
Test groups (5 rats per group) are dosed orally with compounds one hour prior to the sub-plantar injection into the right hind paw of rabbit anti-ovalbumin antibody (50 μg/0.1 ml). Immediately afterwards, ovalbumin (Sigma, #5503) (5 mg/0.2 ml) is injected i.v. via the tail vein. The right hind paw volume is measured at hourly intervals, from one to four hours after the injection of the immune reactants.
The change in paw volume for each animal is calculated by subtracting the zero hour paw volume (before injection) from the paw volume at the time of measurement. The mean of these values is calculated for each group. Results are expressed as percent inhibition of paw swelling compared to untreated controls.

Series [7] has as its system MMC-16 cells, LTC4 release (lipoxygenase pathway). In words: Mouse Mastocytoma Cell Leukotriene Release. The series is classed as cell-based. As for the experimental part: The MMC-16 cell line represents a convenient in vitro model for studying the lipoxygenase pathway and offers an effective screening method by which inhibitory test compounds can be identified.
Cultured MMC-16 cells are suspended in Ca^++ free phosphate buffer at a concentration of 10^7 cells/ml. The cell suspension is distributed into plastic culture tubes, 1 ml/tube. Duplicate tubes are used for each drug concentration tested, with drug solution (0.2 ml) added to each tube. An ionophore control consists of Ca^++ free buffer (0.2 ml) added to two tubes, and a blank (0.4 ml Ca^++ free buffer) added to two tubes. CaCl2 solution (0.1 ml) is added to the drug and ionophore control tubes, which are vortexed and incubated at 37° C. for 40 minutes. The tubes are then centrifuged at 1,000×g for 10 minutes, and the supernatants collected and added to 4 volumes of absolute ethanol. LTC4 content is then assayed for by either radioimmunoassay or high performance liquid chromatography.

A short description of series [8]: in vivo. As to conditions: rat.
Description: A 50% ulcerogenic response in the animals tested (UD50) at 200 mg/kg for 4 days is observable when the rats are examined 24 hours after the last dose.

This is an account of results in US4743606A, “3-[2-(3',5'-di-t-butyl-4'-hydroxyphenyl)ethenyl]pyridine having anti-inflammatory and anti-arthritic properties” (Boehringer Ingelheim Pharmaceuticals, Inc., priority 1986, dated 1988).

Broadly, the % Inhibition is the relative decrease from the control value, in per cent. By ED50 is commonly meant the midpoint of the dose-response relation. The IC50 is the point on the concentration scale where inhibition reaches its midpoint. As usually defined, the inhibition is the relative decrease from the control value, in per cent.

Where two headings read alike, the source gives them in different places.

With `CC(C)(C)c1cc(C=Cc2ccncc2)cc(C(C)(C)C)c1O` [4-[2-(3',5'-di-t-butyl-4'-hydroxyphenyl)ethenyl]pyridine, reference compound], the “% Inhibition” value in series [1] (50 mg/kg) is given as 0%.
Consider `CC(C)(C)c1cc(C=Cc2cccnc2)cc(C(C)(C)C)c1O` [Compound 1, 3-[2-(3,5-di-t-butyl-4-hydroxyphenyl)ethenyl]-pyridine], for which the “% Inhibition” value was 56% in series [1] (5 mg/kg); 82% in series [1] (50 mg/kg); 60% in series [2] (5.0 mg/kg, oral, daily days 14-27); 74% in series [2] (10.0 mg/kg, oral, daily days 14-27); 79% in series [2] (20.0 mg/kg, oral, daily days 14-27); 82% in series [2] (40.0 mg/kg, oral, daily days 14-27). Also, the “% Inhibition” value is 56% in series [3] (100 mg/kg, oral, 1 hour prior to carrageenan, edema at 3 hours); 17% in series [6] (1 mg/kg oral, hour 1); 19% in series [6] (1 mg/kg oral, hour 2); 26% in series [6] (1 mg/kg oral, hour 3); 10% in series [6] (1 mg/kg oral, hour 4); 29% in series [6] (30 mg/kg oral, hour 1). The “% Inhibition” value in series [6] (30 mg/kg oral, hour 2) came to 50%; in series [6] (30 mg/kg oral, hour 3), 55%; in series [6] (30 mg/kg oral, hour 4) it was 44%; in series [6] (100 mg/kg oral, hour 1), 7%; in series [6] (100 mg/kg oral, hour 2) it was 48%; in series [6] (100 mg/kg oral, hour 3) it was 55%. Also, the “% Inhibition” value in series [6] (100 mg/kg oral, hour 4) is on record as 22%. In addition, in series [1] (in words), the “activity in developing adjuvant arthritis screen in the rat” value is “active”. Besides, the “activity in established adjuvant arthritis screen in the rat” value in series [2] (in words) was “active”. In series [2] (rat established adjuvant arthritis, oral, daily days 14-27), the ED50 is 4 mg/kg. Moreover, the “activity in carrageenan paw edema screen” value in series [3] (in words) is reported as “active”. For the same molecule, the IC50 in series [4] is 3 µM; in series [5] (read-out: Opsonized Zymosan Stimulated Oxidative Burst IC50), 14 µM; in series [5] (read-out: PMA Stimulated Oxidative Burst IC50), 25 µM; in series [7] (LTC4 release, MMC-16 cells) it was 7 µM. In series [4] (5 × 10^-5 M), the inhibition at 50 µM came to 66%. Also, the inhibition at 5 µM in series [4] (5 × 10^-6 M) came out at 68%. Further, in series [4] (5 × 10^-7 M), the inhibition at 0.5 µM is 18%. For the same molecule, the inhibition at 10 µM in series [4] (10^-5 M) and in series [7] (10^-5 M) was 67% each time. Moreover, the inhibition at 1 µM was determined as 29% in series [4] (10^-6 M) and 0% in series [7] (10^-6 M). Moreover, the “inhibition of 5-lipoxygenase” value in series [4] (in words) is given as “inhibit”. Also, in series [5] (in words), the “release of pro-inflammatory oxygen metabolites from stimulated neutrophils” value was “inhibited”. In addition, the “activity in reverse passive arthus screen” value in series [6] (in words) was “active”. Moreover, in series [7] (3 × 10^-5 M), the inhibition at 30 µM is 100%. This molecule also had an inhibition at 3 µM in series [7] (3 × 10^-6 M) of 18%. In series [8], this molecule registered a TD50 at 24 h of 200 mg/kg.
